Test system: collection of strains of P. aeruginosa
Test: Agar well diffusion test (several strains)
Assay type: cell-based, Pseudomonas aeruginosa
Conditions: control samples
Experimental: Conjugates 10 and 11 were first evaluated for their antibacterial ability against a collection of strains of P. aeruginosa using the agar well diffusion test. The influence of iron concentration on antibacterial activity was probed as well by conducting assays in iron-rich and iron-deficient media.
All liquids and media were sterilized by autoclaving (121° C., 15 min) before use. All aqueous solutions and media were prepared using distilled, deionized, and filtered water (Millipore Milli-Q Advantage A10 Water Purification System). Luria broth (LB) was purchased from VWR. Mueller-Hinton No. 2 broth (MHII broth; cation adjusted) was purchased from Sigma-Aldrich (St. Louis, Mo.). Iron-deficient (—Fe) MHII broth was prepared by adding 0.8 mL of a 1 mg/mL sterile aq. solution of 2,2′-bipyridine to 49.2 mL of MHII broth. Iron-rich (+Fe) MHII broth was prepared by adding 0.8 mL of a 1 mg/mL sterile aq. solution of FeCl3 to 49.2 mL of MHII broth. Mueller-Hinton No. 2 agar (MHII agar; HiMedia Laboratories) was purchased from VWR. Iron-deficient (−Fe) MHII agar was prepared by adding 0.5 mL of a 1 mg/mL sterile aq. solution of 2,2′-bipyridine to 34 mL of melted MHII agar with gentle mixing. Iron-rich (+Fe) MHII agar was prepared by adding 0.5 mL of a 1 mg/mL sterile aq. solution of FeCl3 to 34 mL of melted MHII agar with gentle mixing. See also Wencewicz, T. A. Dissertation, University of Notre Dame, Notre Dame, Ind., 2011, for relevant techniques.
Antibacterial Susceptibility Testing by the Agar Diffusion Assay.
Antibacterial activity of the compounds was determined by a modified Kirby-Bauer agar diffusion assay. Overnight cultures of test organisms were grown in LB broth for 18-24 h and standard suspensions of […] were prepared in saline solution (0.9% NaCl) according to a 0.5 BaSO4 McFarland Standard. This standardized suspension (0.1 mL) was added to 34 mL of sterile, melted agar (−Fe or +Fe) tempered to 47-50° C. After gentle mixing, the inoculated agar media was poured into a sterile plastic petri dish (145 mm×20 mm) and allowed to solidify near a flame with the lid ajar for about 30 min. Wells of 9.0 mm diameter were cut from the petri dish agar and filled with exactly 50 μL of the test sample solution. The petri dish was incubated at 37° C. for 18-24 h and the inhibition zone diameters were measured (mm) with an electronic caliper after 24 h.

SMILES | inhibitory effect in the agar well diffusion test
CC(=O)Oc1cccc(C(=O)NCCCC(CCCNC(=O)c2cccc(OC(C)=O)c2OC(C)=O)(CCCNC(=O)c2cccc(OC(C)=O)c2OC(C)=O)NC(=O)CCC(=O)N[C@@H](C(N)=O)c2ccccc2)c1OC(C)=O [Compound S1] | did not show any inhibitory effect
CC(=O)Oc1cccc(C(=O)NCCCC(CCCNC(=O)c2cccc(OC(C)=O)c2OC(C)=O)(CCCNC(=O)c2cccc(OC(C)=O)c2OC(C)=O)NC(=O)CCC(=O)O)c1OC(C)=O [Compound 9] | did not show any inhibitory effect
